Source: ChEMBL document CHEMBL1149118, “Validation of molecular docking calculations involving FGF-1 and FGF-2” (J Med Chem, 2004)
pKd: −log10 of the molar value.

Tests used:
[1] = target: T1, Fibroblast growth factor 1 (Homo sapiens, UniProt P05230); assay: Binding affinity for Fibroblast growth factor 1
[2] = target: T2, Fibroblast growth factor 2 (Homo sapiens, UniProt P09038); assay: Binding affinity for Fibroblast growth factor 2
[3] = target: T2, Fibroblast growth factor 2; assay: Dissociation constant for Fibroblast growth factor 2
[4] = target: T1, Fibroblast growth factor 1; assay: Dissociation constant for Fibroblast growth factor 1
[5] = target: T2, Fibroblast growth factor 2; assay: Dissociation constant for Fibroblast growth factor 2 (None observed)
[6] = target: T2, Fibroblast growth factor 2; assay: Dissociation constant for Fibroblast growth factor 2 (None Observed)

T1 sequence (P05230 whole entry): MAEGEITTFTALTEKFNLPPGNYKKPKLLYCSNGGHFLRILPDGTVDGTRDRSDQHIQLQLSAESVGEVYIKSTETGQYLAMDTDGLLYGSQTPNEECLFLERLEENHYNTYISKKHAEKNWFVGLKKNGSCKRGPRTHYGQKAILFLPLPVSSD
T2 sequence (P09038 143-288 limits assumed): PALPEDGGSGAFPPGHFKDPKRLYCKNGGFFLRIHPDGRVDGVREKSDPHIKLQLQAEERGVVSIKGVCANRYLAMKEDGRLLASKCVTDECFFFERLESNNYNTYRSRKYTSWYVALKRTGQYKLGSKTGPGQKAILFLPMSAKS

SMILES	Delta G [1] [kcal/mol]	Delta G [2] [kcal/mol]	pKd [3]	pKd [4]	Kd [5]	Kd [6]
O=S(=O)(O)OC[C@H]1OCC[C@@H](OCc2ccccc2)C1OS(=O)(=O)O (some centres not stated)	-3.36	-3.13	2.29	2.47	–	–
O=C(CN(Cc1ccccc1)C(=O)C1OC(OS(=O)(=O)O)C(OS(=O)(=O)O)C(OS(=O)(=O)O)C1OS(=O)(=O)O)NC1CCCCC1 (configuration not stated)	-5.35	-4.67	3.43	3.92	–	–
O=S(=O)(O)c1ccc2c(S(=O)(=O)O)cc(S(=O)(=O)O)cc2c1 [NAPHTHALENE TRISULFONATE]	-4.53	-4.98	3.65	3.32	–	–
COC1OC(C)C(OCc2ccccc2)C(OS(=O)(=O)O)C1OS(=O)(=O)O (configuration not stated)	-4.73	-4.91	3.60	3.47	–	–
O=C(O)c1cc(/N=N/c2ccc(S(=O)(=O)Nc3ccccn3)cc2)ccc1O [SULFASALAZINE]	-4.38	–	–	3.22	–	None Observed
O=S(=O)(O)OC[C@@H]1O[C@H](OS(=O)(=O)O)[C@H](OC2O[C@@H](COS(=O)(=O)O)[C@@H](S(=O)(=O)O)[C@H](O[C@H]3O[C@@H](COS(=O)(=O)O)[C@@H](OS(=O)(=O)O)[C@H](OS(=O)(=O)O)[C@H]3OS(=O)(=O)O)[C@H]2OS(=O)(=O)O)[C@@H](OS(=O)(=O)O)[C@@H]1OS(=O)(=O)O (some centres not stated)	-11.1	-8.08	5.93	8.11	–	–
COC1C(OCc2ccccc2)C2COC(O2)C1OS(=O)(=O)O (configuration not stated)	-4.79	-2.86	2.10	3.51	–	–
O=S(=O)(O)OC[C@H]1OCC[C@@H](OCCCOc2ccccc2)C1OS(=O)(=O)O (some centres not stated)	-3.39	-2.9	2.12	2.49	–	–
CO[C@@H]1O[C@@H](COS(=O)(=O)O)[C@@H](OS(=O)(=O)O)[C@H](OC(=O)c2ccccc2)[C@@H]1OC(=O)c1ccccc1	-4.14	–	–	3.04	None observed	–
O=S(=O)(O)C[C@@H]1[C@@H](O[C@]2(COS(=O)(=O)O)O[C@H](COS(=O)(=O)O)[C@@H](OS(=O)(=O)O)[C@@H]2OS(=O)(=O)O)O[C@@H](CS(=O)(=O)O)[C@@H](OS(=O)(=O)O)[C@H]1OS(=O)(=O)O	-8.36	-7.17	5.26	6.13	–	–

Other lines, results leading:

Delta G [1] [kcal/mol]	Delta G [2] [kcal/mol]	pKd [3]	pKd [4]	Kd [5]	Kd [6]	SMILES
-3.92	–	–	2.87	None observed	–	C=CCOC1C(C)OC(OC)C(OS(=O)(=O)O)C1OS(=O)(=O)O (configuration not stated)
-6.04	-5.19	3.81	4.43	–	–	O=S(=O)(O)OC[C@@H]1O[C@H](OS(=O)(=O)O)[C@H](OS(=O)(=O)O)[C@@H](OS(=O)(=O)O)[C@@H]1OS(=O)(=O)O
-8.54	-7.09	5.20	6.27	–	–	O=S(=O)(O)OC[C@@H]1O[C@H](O[C@H]2[C@H](OS(=O)(=O)O)[C@H](OS(=O)(=O)O)C(OS(=O)(=O)O)O[C@H]2COS(=O)(=O)O)[C@@H](OS(=O)(=O)O)[C@H](OS(=O)(=O)O)[C@H]1OS(=O)(=O)O (some centres not stated)
-4.73	-4.89	3.59	3.47	–	–	[N-]=[N+]=NCC1OC(OS(=O)(=O)O)C(OS(=O)(=O)O)C(OS(=O)(=O)O)C1OS(=O)(=O)O (configuration not stated)
-8.07	-6.65	4.88	5.92	–	–	O=S(=O)(O)OC[C@@H]1O[C@@H](O[C@H]2[C@H](OS(=O)(=O)O)[C@H](OS(=O)(=O)O)C(OS(=O)(=O)O)O[C@H]2COS(=O)(=O)O)[C@@H](OS(=O)(=O)O)[C@H](OS(=O)(=O)O)[C@H]1OS(=O)(=O)O (some centres not stated)
-4.8	-4.44	3.26	3.52	–	–	CO[C@H]1O[C@@H](COCC(=O)N(CCOS(=O)(=O)O)CC(=O)NC2CCCCC2)[C@@H](OS(=O)(=O)O)[C@H](OS(=O)(=O)O)[C@H]1OS(=O)(=O)O
-5.31	-4.72	3.46	3.90	–	–	CO[C@H]1O[C@H](COS(=O)(=O)O)[C@@H](OS(=O)(=O)O)[C@H](OS(=O)(=O)O)[C@@H]1OS(=O)(=O)O
-8.1	-6.53	4.79	5.94	–	–	CO[C@@H]1O[C@@H](COS(=O)(=O)O)[C@@H](O[C@@H]2O[C@@H](COS(=O)(=O)O)[C@H](OS(=O)(=O)O)[C@H](OS(=O)(=O)O)[C@@H]2OS(=O)(=O)O)[C@H](OS(=O)(=O)O)[C@@H]1OS(=O)(=O)O
-3.04	-2.39	1.76	2.23	–	–	CO[C@@H]1CCO[C@H](COS(=O)(=O)O)C1OS(=O)(=O)O (some centres not stated)
-9.39	-6.24	4.57	6.89	–	–	O=S(=O)(O)C[C@@H]1[C@H](OS(=O)(=O)O)O[C@H](OS(=O)(=O)O)[C@H](O[C@H]2O[C@@H](COS(=O)(=O)O)[C@@H](OS(=O)(=O)O)[C@H](OS(=O)(=O)O)[C@H]2OS(=O)(=O)O)[C@H]1OS(=O)(=O)O
